Source: ChEMBL document CHEMBL1142222, “A-803467, a potent and selective Nav1.8 sodium channel blocker, attenuates neuropathic and inflammatory pain in the rat” (Proc Natl Acad Sci U S A, 2007)
pIC50: −log10 of the molar value. The source made the active and inactive calls. The calls are words filed in the database; no cut-off is given here.

Experiments:
Rattus norvegicus [1] = test: Analgesic activity in ip dosed rat skin incision model of post-operative pain after 24 hrs; assay type: functional
Rattus norvegicus [2] = test: Analgesic activity in ip dosed rat colonic distension model; assay type: functional
[3] = target: 5-hydroxytryptamine receptor 6 (Homo sapiens, UniProt P50406); test: Displacement of [3H]LSD from 5HT6 receptor
[4] = target: Alpha-2A adrenergic receptor (Homo sapiens, UniProt P08913); test: Displacement of [3H]RX821002 from adrenergic alpha-2 receptor
[5] = target: Potassium voltage-gated channel subfamily KQT member 2 (Homo sapiens, UniProt O43526); test: Inhibition of KCNQ2 channel
P2X purinoceptor 2 = P2X purinoceptor 2 (Homo sapiens, UniProt Q9UBL9); test: Displacement of [3H]alpha,beta-methyl ATP from P2X receptor
[6] = Displacement of [3H]PACAP1-27 from PACAP PAC1 receptor
[7] = target: T1, Sodium channel protein type 10 subunit alpha (Homo sapiens, UniProt Q9Y5Y9); test: Inhibition of human Nav1.8 channel expressed in HEK293 cells at -40 mV by patch clamp method; assay type: cell-based
T1 sequence (Q9Y5Y9 whole entry): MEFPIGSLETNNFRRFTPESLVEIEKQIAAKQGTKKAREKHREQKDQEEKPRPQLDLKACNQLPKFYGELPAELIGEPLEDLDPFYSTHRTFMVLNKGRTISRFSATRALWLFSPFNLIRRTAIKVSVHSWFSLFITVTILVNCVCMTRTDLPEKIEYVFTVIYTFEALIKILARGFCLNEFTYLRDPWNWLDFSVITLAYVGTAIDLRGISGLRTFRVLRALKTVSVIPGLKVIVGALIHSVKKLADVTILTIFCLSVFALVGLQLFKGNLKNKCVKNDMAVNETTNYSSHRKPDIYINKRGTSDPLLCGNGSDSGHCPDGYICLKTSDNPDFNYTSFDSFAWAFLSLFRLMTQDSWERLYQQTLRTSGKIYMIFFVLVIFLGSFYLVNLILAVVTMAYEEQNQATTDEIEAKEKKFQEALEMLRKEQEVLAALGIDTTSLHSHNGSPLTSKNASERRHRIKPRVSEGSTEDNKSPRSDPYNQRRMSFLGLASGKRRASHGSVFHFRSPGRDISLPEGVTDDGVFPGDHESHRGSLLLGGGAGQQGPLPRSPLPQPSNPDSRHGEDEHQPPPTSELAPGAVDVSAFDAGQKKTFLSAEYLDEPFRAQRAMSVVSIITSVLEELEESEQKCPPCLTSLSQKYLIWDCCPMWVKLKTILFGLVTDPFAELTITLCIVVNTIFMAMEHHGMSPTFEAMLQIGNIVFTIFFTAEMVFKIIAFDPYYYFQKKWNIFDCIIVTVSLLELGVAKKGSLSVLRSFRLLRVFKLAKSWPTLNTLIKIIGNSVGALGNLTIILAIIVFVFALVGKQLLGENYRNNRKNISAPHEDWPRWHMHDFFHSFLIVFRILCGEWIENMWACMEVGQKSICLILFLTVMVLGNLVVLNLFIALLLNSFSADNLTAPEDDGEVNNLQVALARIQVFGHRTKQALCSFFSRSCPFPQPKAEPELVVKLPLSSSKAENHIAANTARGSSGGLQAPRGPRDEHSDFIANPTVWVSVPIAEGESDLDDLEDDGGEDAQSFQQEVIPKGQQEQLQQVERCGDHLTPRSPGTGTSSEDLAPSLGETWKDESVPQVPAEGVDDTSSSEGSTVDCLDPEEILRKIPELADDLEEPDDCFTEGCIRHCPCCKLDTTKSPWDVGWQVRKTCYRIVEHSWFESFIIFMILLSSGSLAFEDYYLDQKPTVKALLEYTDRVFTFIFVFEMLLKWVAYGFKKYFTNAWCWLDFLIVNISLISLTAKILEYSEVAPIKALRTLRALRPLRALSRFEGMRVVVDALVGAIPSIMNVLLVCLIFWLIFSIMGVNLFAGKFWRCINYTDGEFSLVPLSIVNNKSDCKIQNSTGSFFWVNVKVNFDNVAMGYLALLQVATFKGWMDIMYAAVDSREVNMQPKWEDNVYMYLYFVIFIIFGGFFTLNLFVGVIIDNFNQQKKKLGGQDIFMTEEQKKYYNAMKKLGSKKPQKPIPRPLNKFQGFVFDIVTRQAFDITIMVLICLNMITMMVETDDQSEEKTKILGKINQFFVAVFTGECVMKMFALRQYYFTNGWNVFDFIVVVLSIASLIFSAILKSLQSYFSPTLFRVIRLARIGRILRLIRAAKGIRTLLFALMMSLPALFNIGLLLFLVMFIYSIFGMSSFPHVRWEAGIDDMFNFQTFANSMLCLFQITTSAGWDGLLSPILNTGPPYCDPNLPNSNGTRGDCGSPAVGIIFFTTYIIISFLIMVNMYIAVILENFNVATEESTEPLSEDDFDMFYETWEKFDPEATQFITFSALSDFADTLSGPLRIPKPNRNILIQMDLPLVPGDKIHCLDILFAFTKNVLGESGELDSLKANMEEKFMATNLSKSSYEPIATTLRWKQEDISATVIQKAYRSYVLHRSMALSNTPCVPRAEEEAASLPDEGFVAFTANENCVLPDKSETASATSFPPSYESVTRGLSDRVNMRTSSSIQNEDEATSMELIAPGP

[8] = target: Muscarinic acetylcholine receptor M3 (Homo sapiens, UniProt P20309); test: Displacement of [3H]4DAMP from muscarinic M3 receptor
[9] = target: T1, Sodium channel protein type 10 subunit alpha; test: Inhibition of human Nav1.8 channel expressed in human HEK293 cells by patch clamp method; assay type: cell-based
Rattus norvegicus [10] = test: Analgesic activity in rat colonic distension model at 100 mg/kg, ip; assay type: functional; settings: route intraperitoneal
Rattus norvegicus [11] = test: Analgesic activity in rat skin incision model of post-operative pain at 100 mg/kg, ip after 2 hrs; assay type: functional; settings: route intraperitoneal
Rattus norvegicus [12] = test: Analgesic activity in ip dosed rat chronic constriction injury model of mechanical allodynia; assay type: functional
[13] = Displacement of [125I]TNFalpha from TNFalpha receptor
D(1A) dopamine receptor = D(1A) dopamine receptor (Homo sapiens, UniProt P21728); test: Displacement of [3H]SCH-23390 from dopamine D1 receptor
Rattus norvegicus [14] = test: Analgesic activity in ip dosed rat L5/L6 spinal nerve ligation-induced neuropathic pain model; assay type: functional
[15] = target: 5-hydroxytryptamine receptor 5A (Homo sapiens, UniProt P47898); test: Displacement of [3H]LSD from 5HT5A receptor
5-hydroxytryptamine receptor 5A, sequence (P47898 whole entry): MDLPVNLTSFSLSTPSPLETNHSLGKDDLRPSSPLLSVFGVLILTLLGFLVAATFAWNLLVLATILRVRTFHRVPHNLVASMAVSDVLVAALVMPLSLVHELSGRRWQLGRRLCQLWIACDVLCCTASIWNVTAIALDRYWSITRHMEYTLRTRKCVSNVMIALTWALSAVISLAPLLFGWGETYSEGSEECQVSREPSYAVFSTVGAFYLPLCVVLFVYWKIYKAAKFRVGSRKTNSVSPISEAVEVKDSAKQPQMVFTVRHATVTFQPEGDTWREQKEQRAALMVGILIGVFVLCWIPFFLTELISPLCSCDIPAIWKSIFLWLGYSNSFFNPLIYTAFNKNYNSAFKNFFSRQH

[16] = target: T2, Sodium channel protein type 10 subunit alpha (Rattus norvegicus, UniProt Q62968); test: Inhibition of Nav1.8 channel in rat dorsal root ganglion neurons assessed as blockade of TTX-R current by patch clamp method; assay type: tissue-based
T2 sequence (Q62968 whole entry): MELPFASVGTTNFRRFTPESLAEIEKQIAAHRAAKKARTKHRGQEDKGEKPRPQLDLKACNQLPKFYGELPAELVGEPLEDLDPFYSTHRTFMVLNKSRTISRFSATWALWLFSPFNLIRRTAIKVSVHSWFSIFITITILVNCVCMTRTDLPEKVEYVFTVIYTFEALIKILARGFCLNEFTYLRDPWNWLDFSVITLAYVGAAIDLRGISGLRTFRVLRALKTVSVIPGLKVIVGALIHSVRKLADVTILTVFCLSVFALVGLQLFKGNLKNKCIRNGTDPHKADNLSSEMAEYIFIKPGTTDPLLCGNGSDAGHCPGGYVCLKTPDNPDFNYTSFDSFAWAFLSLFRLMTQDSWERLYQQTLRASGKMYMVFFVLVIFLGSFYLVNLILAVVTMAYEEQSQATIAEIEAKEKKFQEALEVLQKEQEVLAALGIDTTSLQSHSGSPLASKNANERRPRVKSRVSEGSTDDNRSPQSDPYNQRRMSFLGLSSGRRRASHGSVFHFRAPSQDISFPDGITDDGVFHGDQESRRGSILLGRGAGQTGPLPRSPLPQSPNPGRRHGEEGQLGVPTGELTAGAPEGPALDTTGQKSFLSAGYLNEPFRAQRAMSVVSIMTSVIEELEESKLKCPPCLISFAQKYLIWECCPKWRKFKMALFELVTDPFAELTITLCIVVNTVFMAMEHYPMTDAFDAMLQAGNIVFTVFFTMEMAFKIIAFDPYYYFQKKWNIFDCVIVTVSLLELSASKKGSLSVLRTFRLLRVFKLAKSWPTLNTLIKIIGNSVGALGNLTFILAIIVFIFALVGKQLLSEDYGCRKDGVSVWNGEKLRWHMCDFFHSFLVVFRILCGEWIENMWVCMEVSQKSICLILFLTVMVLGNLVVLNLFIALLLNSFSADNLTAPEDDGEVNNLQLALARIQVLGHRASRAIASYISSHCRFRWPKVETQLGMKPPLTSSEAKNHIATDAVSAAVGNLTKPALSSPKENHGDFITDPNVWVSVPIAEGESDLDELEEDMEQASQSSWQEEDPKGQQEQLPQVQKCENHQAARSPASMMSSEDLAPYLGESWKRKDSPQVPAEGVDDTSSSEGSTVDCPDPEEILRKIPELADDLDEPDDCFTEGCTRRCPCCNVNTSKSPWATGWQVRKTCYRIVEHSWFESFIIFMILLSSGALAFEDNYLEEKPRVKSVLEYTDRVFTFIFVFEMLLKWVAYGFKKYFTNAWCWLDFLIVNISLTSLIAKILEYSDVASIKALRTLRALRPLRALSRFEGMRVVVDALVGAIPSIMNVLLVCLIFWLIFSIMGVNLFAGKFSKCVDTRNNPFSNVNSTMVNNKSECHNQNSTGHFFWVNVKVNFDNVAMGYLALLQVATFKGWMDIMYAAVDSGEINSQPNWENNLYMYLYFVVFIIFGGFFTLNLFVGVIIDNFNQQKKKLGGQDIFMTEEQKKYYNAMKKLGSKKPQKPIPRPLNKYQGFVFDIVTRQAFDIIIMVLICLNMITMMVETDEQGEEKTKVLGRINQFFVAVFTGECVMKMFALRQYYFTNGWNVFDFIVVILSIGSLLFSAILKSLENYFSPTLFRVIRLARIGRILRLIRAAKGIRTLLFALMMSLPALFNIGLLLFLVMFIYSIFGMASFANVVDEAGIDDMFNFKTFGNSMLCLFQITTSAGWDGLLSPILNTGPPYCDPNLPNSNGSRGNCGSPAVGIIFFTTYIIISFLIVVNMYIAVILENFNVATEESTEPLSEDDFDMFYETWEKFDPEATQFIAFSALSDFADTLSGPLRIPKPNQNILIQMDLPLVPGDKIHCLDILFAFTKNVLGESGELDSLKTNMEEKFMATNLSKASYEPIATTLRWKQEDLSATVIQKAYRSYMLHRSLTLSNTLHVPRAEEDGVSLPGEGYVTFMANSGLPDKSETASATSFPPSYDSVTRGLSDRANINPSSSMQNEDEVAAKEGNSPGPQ

Rattus norvegicus [17] = test: Analgesic activity in ip dosed rat capsaicn induced mechanical allodynia model; assay type: functional
Rattus norvegicus [18] = test: Antinociceptive activity in rat assessed as reduction of spontaneous firing of spinal dorsal horn wide dynamic range neurons at 20 mg/kg, iv; assay type: functional, Dorsal horn of spinal cord; set-up: scale not given: the % may be the effect or the level left
Rattus norvegicus [19] = test: Analgesic activity in ip dosed rat acute thermal stimulation nociception model assessed as paw withdrawal latency; assay type: functional
Rattus norvegicus [20] = test: Analgesic activity in rat capsaicn induced mechanical allodynia model at 300 mg/kg, ip; assay type: functional; settings: route intraperitoneal
[21] = Tmax in rat at 10 mg/kg, po; assay type: ADME, organism-based; set-up: dose 10 mg/kg, route oral; settings: in vivo
[22] = Clearance in rat plasma; assay type: ADME, organism-based
Adenosine receptor A1 = Adenosine receptor A1 (Homo sapiens, UniProt P30542); test: Displacement of [3H]DPCPX from adenosine A1 receptor
Rattus norvegicus [23] = test: Analgesic activity in rat carrageenan-induced […] pain model at 100 mg/kg, ip; assay type: functional; settings: route intraperitoneal
[24] = target: Muscarinic acetylcholine receptor M1 (Homo sapiens, UniProt P11229); test: Displacement of [3H]pirezepine from muscarinic M1 receptor
[25] = target: Sodium channel protein type 9 subunit alpha (Homo sapiens, UniProt Q15858); test: Inhibition of human Nav1.7 channel expressed in HEK293 cells at -120 mV by patch clamp method; assay type: cell-based
[26] = target: C-C chemokine receptor type 1 (Homo sapiens, UniProt P32246); test: Displacement of [125I]MIP1-alpha from CCR1 receptor
[27] = target: T2, Sodium channel protein type 10 subunit alpha; test: Inhibition of recombinant rat Nav1.8 sodium channel assessed as blockade of TTXR current by patch clamp method
DRG neuron [28] = test: Suppression of evoked action potential firing in rat DRG neurons at 0.3 uM; assay type: functional, cell-based
[29] = target: Muscarinic acetylcholine receptor M2 (Homo sapiens, UniProt P08172); test: Displacement of [3H]AF-DX384 from muscarinic M2 receptor
Muscarinic acetylcholine receptor M2, sequence (P08172 whole entry): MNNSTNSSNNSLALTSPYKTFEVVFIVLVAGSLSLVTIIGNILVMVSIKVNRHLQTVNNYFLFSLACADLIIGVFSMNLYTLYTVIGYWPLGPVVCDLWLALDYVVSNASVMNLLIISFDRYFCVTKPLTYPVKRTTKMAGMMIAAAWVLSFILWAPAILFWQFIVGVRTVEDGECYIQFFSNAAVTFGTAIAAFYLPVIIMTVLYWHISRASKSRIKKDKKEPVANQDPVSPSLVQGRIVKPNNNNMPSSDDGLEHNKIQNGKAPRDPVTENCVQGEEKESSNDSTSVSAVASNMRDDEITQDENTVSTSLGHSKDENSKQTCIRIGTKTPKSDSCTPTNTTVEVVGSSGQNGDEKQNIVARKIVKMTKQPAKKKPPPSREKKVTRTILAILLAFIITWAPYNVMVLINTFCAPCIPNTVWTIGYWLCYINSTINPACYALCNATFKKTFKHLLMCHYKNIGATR

P2Y purinoceptor 2 = P2Y purinoceptor 2 (Homo sapiens, UniProt P41231); test: Displacement of [35S]dATP-alpha-S from P2Y receptor
[30] = target: Beta-2 adrenergic receptor (Homo sapiens, UniProt P07550); test: Displacement of [3H](-)CGP-12177 from adrenergic beta2 receptor
Rattus norvegicus [31] = test: Analgesic activity in ip dosed rat acute mechanical stimulation nociception model assessed as paw withdrawal latency; assay type: functional
D(1B) dopamine receptor = D(1B) dopamine receptor (Homo sapiens, UniProt P21918); test: Displacement of [3H]SCH23390 from dopamine D5 receptor
Rattus norvegicus [32] = test: Analgesic activity in rat chronic constriction injury model of cold allodynic neuropathic pain at 100 mg/kg, ip; assay type: functional; settings: route intraperitoneal
Rattus norvegicus [33] = test: Antinociceptive activity in rat assessed as reduction of von Frey evoked firing of spinal dorsal horn wide dynamic range neurons at 20 mg/kg, iv; assay type: functional, Dorsal horn of spinal cord; set-up: scale not given: the % may be the effect or the level left
[34] = target: 5-hydroxytryptamine receptor 1B (Homo sapiens, UniProt P28222); test: Displacement of [3H]CYP from 5HT1B receptor
Rattus norvegicus [35] = test: Analgesic activity in rat chronic constriction injury model of mechanical allodynia at 100 mg/kg, ip; assay type: functional; settings: route intraperitoneal
D(4) dopamine receptor = D(4) dopamine receptor (Homo sapiens, UniProt P21917); test: Displacement of [3H]spiperone from dopamine D4.4 receptor
Rattus norvegicus [36] = test: Analgesic activity in ip dosed rat cyclophosphamide induced cyctitis model; assay type: functional
[37] = target: 5-hydroxytryptamine receptor 2A (Homo sapiens, UniProt P28223); test: Displacement of [3H]ketanserin from 5HT2A receptor
Histamine H2 receptor = Histamine H2 receptor (Homo sapiens, UniProt P25021); test: Displacement of [125I]APT from histamine H2 receptor
Histamine H2 receptor, sequence (P25021 whole entry): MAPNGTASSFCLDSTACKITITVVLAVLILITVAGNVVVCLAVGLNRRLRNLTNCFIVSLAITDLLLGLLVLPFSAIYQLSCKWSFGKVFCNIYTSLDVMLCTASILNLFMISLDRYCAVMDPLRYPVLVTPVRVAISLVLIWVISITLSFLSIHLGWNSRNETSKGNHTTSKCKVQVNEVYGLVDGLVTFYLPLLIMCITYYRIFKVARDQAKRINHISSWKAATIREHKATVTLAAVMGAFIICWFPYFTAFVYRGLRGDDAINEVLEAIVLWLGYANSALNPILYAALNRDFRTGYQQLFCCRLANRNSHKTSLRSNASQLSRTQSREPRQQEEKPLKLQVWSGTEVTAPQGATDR

Cannabinoid receptor 2 = Cannabinoid receptor 2 (Homo sapiens, UniProt P34972); test: Displacement of [3H]Win 55212-2 from cannabinoid CB2 receptor
[38] = target: Muscarinic acetylcholine receptor M4 (Homo sapiens, UniProt P08173); test: Displacement of [3H]4DAMP from muscarinic M4 receptor
Rattus norvegicus [39] = test: Analgesic activity in rat complete Freund's adjuvant-induced thermal hyperalgesia model assessed as paw withdrawal latency at 100 mg/kg, ip after 4 days; assay type: functional; settings: route intraperitoneal
Rattus norvegicus [40] = test: Analgesic activity in ip dosed rat vincristine-induced mechanical allodynic neuropathic pain; assay type: functional
[41] = Protein binding in rat plasma; assay type: ADME, cell-free; settings: read-out: PPB (converted)
DRG neuron [42] = test: Suppression of evoked action potential firing in rat DRG neurons at 0.1 uM; assay type: functional
Rattus norvegicus [43] = test: Motor effect in rat assessed as locomotory activity at 300 mg/kg, ip; assay type: functional; settings: route intraperitoneal
[44] = target: 5-hydroxytryptamine receptor 3A (Homo sapiens, UniProt P46098); test: Displacement of [3H]BRL43694 from 5HT3 receptor
[45] = target: 5-hydroxytryptamine receptor 2C (Homo sapiens, UniProt P28335); test: Displacement of [3H]mesulergine from 5HT2C receptor

COc1cc(NC(=O)c2ccc(-c3ccc(Cl)cc3)o2)cc(OC)c1
ED50 (Rattus norvegicus [1]): > 100 mg/kg | ED50 (Rattus norvegicus [2]): > 100 mg/kg | pIC50 [3]: < 5.00 | pIC50 [4]: < 5.00 | pIC50 [5]: < 5.00 | pIC50 (P2X purinoceptor 2): < 5.00 | pIC50 [6]: < 5.00 | pIC50 [7]: 8.10 | pIC50 [8]: < 5.00 | pIC50 [9]: 8.10 | Activity (Rattus norvegicus [10]): 25% | Activity (Rattus norvegicus [11]): 14% | ED50 (Rattus norvegicus [12]): 85 mg/kg | pIC50 [13]: < 5.00 | pIC50 (D(1A) dopamine receptor): 5.15 | ED50 (Rattus norvegicus [14]): 47 mg/kg | pIC50 [15]: < 5.00 | pIC50 [16]: 6.85 | ED50 (Rattus norvegicus [17]): 100 mg/kg | Activity (Rattus norvegicus [18]): 66% | ED50 (Rattus norvegicus [19]): > 100 mg/kg | Activity (Rattus norvegicus [20]): 46% | Tmax [21]: 1.5 h | clearance [22]: 25 mL/min/kg | pIC50 (Adenosine receptor A1): < 5.00 | Activity (Rattus norvegicus [23]): 54% | pIC50 [24]: < 5.00 | pIC50 [25]: 4.45 | pIC50 [26]: < 5.00 | pIC50 [27]: 7.35 | Activity (DRG neuron [28]): Active | pIC50 [29]: < 5.00 | pIC50 (P2Y purinoceptor 2): < 5.00 | pIC50 [30]: < 5.00 | ED50 (Rattus norvegicus [31]): 65 mg/kg | pIC50 (D(1B) dopamine receptor): < 5.00 | Activity (Rattus norvegicus [32]): 61% | Activity (Rattus norvegicus [33]): 53% | pIC50 [34]: < 5.00 | Activity (Rattus norvegicus [35]): 56% | pIC50 (D(4) dopamine receptor): < 5.00 | ED50 (Rattus norvegicus [36]): > 100 mg/kg | pIC50 [37]: 5.52 | pIC50 (Histamine H2 receptor): < 5.00 | pIC50 (Cannabinoid receptor 2): < 5.00 | pIC50 [38]: < 5.00 | Activity (Rattus norvegicus [39]): 71% | ED50 (Rattus norvegicus [40]): > 100 mg/kg | fraction unbound [41]: 0.013 | Activity (DRG neuron [42]): inactive | Activity (Rattus norvegicus [43]): 12% | pIC50 [44]: < 5.00 | pIC50 [45]: < 5.00
